Source: patent US7713965B2, “7-substituted 3-carboxy-oxadiazino-quinolone derivatives, their preparation and their application as anti-bacterials” (Vetoquinol SA, priority 2008, dated 2010)
Values after ≈ are worked out from the molar mass of the structure shown.

How the values were obtained:
Assay type in all cases: cell-based
[1] = system: Mannheimia haemolytica (s = susceptible); assay: MIC determination by microdilution in liquid medium, Man hae s; settings: susceptible strain
[2] = system: Mannheimia haemolytica (r = resistant); assay: MIC determination by microdilution in liquid medium, Man hae r; settings: resistant strain
[3] = system: Bordetella bronchiseptica; assay: MIC determination by microdilution in liquid medium, Bor bron
[4] = system: Pseudomonas aeruginosa (s = susceptible); assay: MIC determination by microdilution in liquid medium, Pse aer s; settings: susceptible strain
[5] = system: Pseudomonas aeruginosa (r = resistant); assay: MIC determination by microdilution in liquid medium, Pse aer r; settings: read-out: MIC Pse aer r
[6] = system: Escherichia coli; assay: MIC determination by microdilution in liquid medium, E coli
[7] = system: Streptococcus uberis; assay: MIC determination by microdilution in liquid medium, Str ube
[8] = system: Staphylococcus aureus (s = susceptible); assay: MIC determination by microdilution in liquid medium, Sta aur s; settings: susceptible strain
[9] = system: Staphylococcus aureus (r = resistant); assay: MIC determination by microdilution in liquid medium, Sta aur r; settings: read-out: MIC Sta aur r
[10] = system: Mycoplasma bovis; assay: MIC determination by microdilution in liquid medium, Myc bov; settings: Mycoplasmopsis bovis
[11] = system: Clostridium perfringens; assay: microbe, parasite or virus in culture; settings: read-out: MIC Clo per
[12] = system: E. coli ATCC 25922; assay: MIC determination by microdilution in liquid medium, E. coli ATCC 25922; settings: Escherichia coli, ATCC25922
[13] = system: E. faecalis ATCC 29212; assay: MIC determination by microdilution in liquid medium, E. faecalis ATCC 29212; settings: Enterococcus faecalis, ATCC29212, read-out: MIC E. fae-calis ATCC 29212
[14] = system: M. bovirhinis; assay: MIC determination by microdilution in liquid medium, M. bovirhinis; settings: Mycoplasma

| SMILES | MIC [1] [µg/mL] | MIC [2] [µg/mL] | MIC [3] [µg/mL] | MIC [4] [µg/mL] | MIC [5] [µg/mL] | MIC [6] [µg/mL] | MIC [7] [µg/mL] | MIC [8] [µg/mL] | MIC [9] [µg/mL] | MIC [10] [µg/mL] | MIC [11] [µg/mL] | MIC [12] [µg/mL] | MIC [13] [µg/mL] | MIC [14] [µg/mL] |
| --- | --- | --- | --- | --- | --- | --- | --- | --- | --- | --- | --- | --- | --- | --- |
| CN1COc2c(N3C[C@@H](N)C(C)(C)C3)c(F)cc3c(=O)c(C(=O)O)cn1c23 [Example 34, 9-((S)-4-Amino-3,3-dimethyl-pyrrolidin-1-yl)-8-fluoro-3-methyl-6-oxo-2,3-dihydro-6H-1-oxa-3,3a-diaza-phenalene-5-carboxylic acid] | 0.03 (≈ 0.0797 µM) | 8 (≈ 21.3 µM) | 0.5 (≈ 1.33 µM) | 0.5 (≈ 1.33 µM) | 8 (≈ 21.3 µM) | 0.03 (≈ 0.0797 µM) | 0.12 (≈ 0.319 µM) | < 0.03 | 2 (≈ 5.31 µM) | 0.5 (≈ 1.33 µM) | < 0.03 | 0.03 (≈ 0.0797 µM) | 0.25 to 0.5 (≈ 0.664 to 1.33 µM) | 0.12 (≈ 0.319 µM) |
| CN1COc2c(N3CC[C@@H](Nc4nccs4)C3)c(F)cc3c(=O)c(C(=O)O)cn1c23 [Example 19, 8-Fluoro-3-methyl-6-oxo-9-[(R)-3-(thiazol-2-ylamino)-pyrrolidin-1-yl]-2,3-dihydro-6H-1-oxa-3,3a-diaza-phenalene-5-carboxylic acid] | 0.03 (≈ 0.0695 µM) | 8 (≈ 18.5 µM) | 0.12 (≈ 0.278 µM) | 2 (≈ 4.64 µM) | 8 (≈ 18.5 µM) | 0.06 (≈ 0.139 µM) | < 0.03 | < 0.03 | 0.25 (≈ 0.579 µM) | < 0.03 | < 0.03 | 0.25 (≈ 0.579 µM) | 0.06 (≈ 0.139 µM) | 0.25 (≈ 0.579 µM) |
| CN1COc2c(N3CCC(Nc4nncs4)C3)c(F)cc3c(=O)c(C(=O)O)cn1c23 (stereo not drawn) [Example 10, 8-Fluoro-3-methyl-6-oxo-9-[3-([1,3,4]thiadiazol-2-ylamino)-pyrrolidin-1-yl]-2,3-dihydro-6H1-oxa-3,3a-diaza-phenalene-5-carboxylic acid] | 0.03 (≈ 0.0694 µM) | > 32 | 2 (≈ 4.62 µM) | 4 (≈ 9.25 µM) | > 32 | 0.25 (≈ 0.578 µM) | < 0.03 | < 0.03 | 4 (≈ 9.25 µM) | 0.12 (≈ 0.277 µM) | < 0.03 | 1 (≈ 2.31 µM) | 0.25 (≈ 0.578 µM) | 2 (≈ 4.62 µM) |
| CN1COc2c(N3CC[C@H](Nc4nccs4)C3)c(F)cc3c(=O)c(C(=O)O)cn1c23 [Example 18, 8-Fluoro-3-methyl-6-oxo-9-[(S)-3-(thiazol-2-ylamino)-pyrrolidin-1-yl]-2,3dihydro-6H-1-oxa-3,3a-diaza-phenalene-5-carboxylic acid] | 0.12 (≈ 0.278 µM) | > 32 | 0.25 (≈ 0.579 µM) | 4 (≈ 9.27 µM) | 32 (≈ 74.2 µM) | 0.5 (≈ 1.16 µM) | 0.25 (≈ 0.579 µM) | < 0.03 | 4 (≈ 9.27 µM) | 0.25 (≈ 0.579 µM) | 0.06 (≈ 0.139 µM) | 0.06 (≈ 0.139 µM) | ≤ 0.03 | ≤ 0.03 |
| CN1COc2c(N3CCC(Nc4cnccn4)C3)c(F)cc3c(=O)c(C(=O)O)cn1c23 (stereo not drawn) [Example 7] | 0.06 (≈ 0.141 µM) | 16 (≈ 37.5 µM) | 0.5 (≈ 1.17 µM) | 2 (≈ 4.69 µM) | 16 (≈ 37.5 µM) | 0.25 (≈ 0.586 µM) | 0.06 (≈ 0.141 µM) | < 0.03 | 0.5 (≈ 1.17 µM) | < 0.03 | 0.06 (≈ 0.141 µM) | 0.25 (≈ 0.586 µM) | ≤ 0.03 | 0.06 (≈ 0.141 µM) |
| CN1COc2c(N3CCC(CNc4cnccn4)C3)c(F)cc3c(=O)c(C(=O)O)cn1c23 (stereo not drawn) [Example 1, 8-fluoro-3-methyl-6-oxo-9-[3-(pyrazin-2-ylaminomethyl)-pyrrolidin-1-yl]-2,3-dihydro-6H-1-oxa-3,3a-diaza-phenalene-5-carboxylic acid] | 0.06 (≈ 0.136 µM) | 16 (≈ 36.3 µM) | 0.5 (≈ 1.14 µM) | 8 (≈ 18.2 µM) | 16 (≈ 36.3 µM) | 0.25 (≈ 0.568 µM) | < 0.03 | < 0.03 | 0.5 (≈ 1.14 µM) | < 0.03 | 0.06 (≈ 0.136 µM) | 0.12 (≈ 0.272 µM) | ≤ 0.03 | 0.06 (≈ 0.136 µM) |
